Reference: PubChem BioAssay AID651969 (The Scripps Research Institute Molecular Screening Center, 2013)
Calls of active or inactive are those of the source. How the calls were made is not given here.

Tested on: StAR promoter luciferase reporter cells, luminescence counterscreen
Experiment: StAR promoter reporter inhibition counter-screen, dose response, counter-screen for LRH-1 inverse agonist project, cell-based, luminescence, luciferase reporter (AID 651969)

COc1ccc(NC(=O)COC(=O)c2cc(S(=O)(=O)N3CCCC3)ccc2O)cc1
IC50: > 35.9 µM (inactive)
